Measured values from patent US4883814A, “1-aryloxy-3-(substituted alkylamino)-2-propanols and use as β-blocker” (Merck & Co., Inc., priority 1988, dated 1989).
Blank lines part the entries; values can stand above or below the compound they belong to.

Key:
β1 -receptor [1] = biological target: T1, β1 -receptor (Cavia porcellus, UniProt H0W3H1); assay: inhibition of the positive chronotropic actions of isoproterenol in isolated guinea pig atrial preparations; conditions: isolated guinea pig atria; vs isoproterenol positive chronotropic action; read-out: pA2 values β1 (atria) (converted)
T1 construct: isolated guinea pig atrial preparations; from tissue; host or cells: isolated guinea pig atria
T1 sequence (H0W3H1 1-470): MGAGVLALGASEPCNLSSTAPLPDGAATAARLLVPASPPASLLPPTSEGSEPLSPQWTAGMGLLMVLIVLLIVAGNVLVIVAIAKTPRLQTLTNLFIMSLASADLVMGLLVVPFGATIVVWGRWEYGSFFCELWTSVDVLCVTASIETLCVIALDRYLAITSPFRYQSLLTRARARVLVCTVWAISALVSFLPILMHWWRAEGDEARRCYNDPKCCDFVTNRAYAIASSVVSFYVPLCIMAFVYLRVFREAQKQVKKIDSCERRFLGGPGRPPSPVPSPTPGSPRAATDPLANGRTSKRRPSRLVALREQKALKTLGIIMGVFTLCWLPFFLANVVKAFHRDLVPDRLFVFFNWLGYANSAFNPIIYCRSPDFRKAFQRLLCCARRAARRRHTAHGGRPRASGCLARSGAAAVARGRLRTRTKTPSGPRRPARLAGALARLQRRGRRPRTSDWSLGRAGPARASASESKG
Description: (§1) The in vitro β-adrenergic blocking properties of the novel compounds of this invention were evaluated in accordance with standard procedures. The interaction with the β1 -receptor was determined via inhibition of the positive chronotropic actions of isoproterenol in isolated guinea pig atrial preparations. β2 potency was determined by using isolated guinea pig tracheal chains contracted with PGF2α and by measuring inhibition of isoproterenol-induced relaxation.

β1 -receptor [2] = assay: as above; conditions: β1 (atria) versus β2 (trachea), from pA2 values
Description: as §1

β2 = biological target: T2, β2 (Cavia porcellus, UniProt Q8K4Z4); assay: inhibition of isoproterenol-induced relaxation in isolated guinea pig tracheal chains contracted with PGF2α; conditions: vs isoproterenol-induced relaxation, read-out: pA2 values β2 (trachea) (converted)
T2 construct: isolated guinea pig tracheal chains; from tissue; host or cells: isolated guinea pig tracheal chains
T2 sequence (Q8K4Z4 whole entry): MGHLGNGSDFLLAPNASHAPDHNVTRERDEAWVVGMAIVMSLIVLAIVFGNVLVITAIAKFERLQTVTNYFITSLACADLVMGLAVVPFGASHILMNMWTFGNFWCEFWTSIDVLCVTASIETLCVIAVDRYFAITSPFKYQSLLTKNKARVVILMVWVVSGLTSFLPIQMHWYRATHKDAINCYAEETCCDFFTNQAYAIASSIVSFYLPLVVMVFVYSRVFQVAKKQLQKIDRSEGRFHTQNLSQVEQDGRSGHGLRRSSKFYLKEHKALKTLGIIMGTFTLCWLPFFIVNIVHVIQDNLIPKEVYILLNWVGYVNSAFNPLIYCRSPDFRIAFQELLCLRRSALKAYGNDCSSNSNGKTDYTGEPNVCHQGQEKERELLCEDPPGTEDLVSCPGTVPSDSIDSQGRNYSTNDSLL
Description: as §1

SMILES: N#Cc1ccccc1OCC(O)CNCCN1CCNCC1 (stereo not shown)
Kb (β1 -receptor [1]): 34.7 nM
Cardioselectivity ratio (β1 -receptor [2]): 1000
Kb (β2): 34700 nM

SMILES: N#Cc1ccccc1OCC(O)CNCCc1ccncc1 (stereo not shown)
Cardioselectivity ratio (β1 -receptor [2]): 4.1

Second part, led by results:

Kb (β1 -receptor [1]): 15.5 nM
Kb (β2): 89.1 nM
SMILES: N#Cc1ccccc1OCC(O)CNCCc1cccnc1 (stereo not shown)
Cardioselectivity ratio (β1 -receptor [2]): 5.8

Kb (β1 -receptor [1]): 23.4 nM
Kb (β2): 138 nM
SMILES: N#Cc1ccccc1OCC(O)CNCCN1CCOCC1 (stereo not shown)
Cardioselectivity ratio (β1 -receptor [2]): 5.9

Kb (β1 -receptor [1]): 25.7 nM
Kb (β2): 64.6 nM
SMILES: N#Cc1ccccc1OCC(O)CNCCc1ccccn1 (stereo not shown)
Cardioselectivity ratio (β1 -receptor [2]): 2.5
